In patent publication US4992292A, “Tris-hydroxymethyl alkane dicarboxylate extended esters as low calorie fat mimetics” (Nabisco Brands, Inc., priority 1990, dated 1991):

Columns and labels:
pancreatic lipase = settings: cited from earlier work
[1] = rats fed ad libitum; cited from earlier work
[2] = rat, in vivo; cited from earlier work
[3] = in vivo animal feeding study for caloric availability; design: species or system Sprague-Dawley rats; settings: rats, diet of 50% fort and 21% test compound, 14 days; from weight gain and corn oil base line data
Description: This example illustrates how the novel fat mimetics of this invention are screened for caloric availability by a carefully controlled in vivo animal feeding study.
An experimental relationship between total calories ingested and animal body weight gain is established by monitoring the body weight gain associated with consumption of a nutritionally balanced diet containing varying concentrations of a reference substance such as corn oil which has a known caloric availabilty. Correlations between total calories ingested and body weight gain are excellent (r=0.99).
Caloric availability of an unknown substance is evaluated by substituting a specific weight of the unknown substance for the reference substance and observing the body weight gain. The gain in body weight is equated to a total number of calories using the correlation previously established for the reference data. The estimated number of calories ingested are divided by the weight of unknown substance to give the apparent calories per gram for the unknown substance. Generally speaking, in these bioavailability studies, the degree of perianal pelt soiling correlates with reduced bioavailability.
The test animals are six-week-old male Sprague-Dawley rats obtained from the Portage, Michigan facility of the Charles River Laboratories, Inc. After acclimation for 15 days, the test duration is I4 days. […]

## CCCCCCCC(=O)OCC(COC(=O)CCCCCCC)(COC(=O)CCCCCCC)COC(=O)CCCCCCC [pentaerythritol tetracaprylate]
Pancreatic lipase
  hydrolysis by the enzyme pancreatic lipase: not attacked, hydrolyzed
[1]
  food consumption versus control animals on a normal diet: consumed more than control animals

## corn oil
[2]
  caloric availability of reference: 9.0 calories/gram

## CCCCCCCC/C=C\CCCCCCCC(=O)OCC(C)(COC(=O)CCCCCCC/C=C\CCCCCCCC)COC(=O)CCCCCCC/C=C\CCCCCCCC [Example 1, 1,1,1-Tris hydroxymethylethane trioleate]
[3]
  caloric availability upon being metabolized: about 3.3 kcal/gram
